Values after ≈ are worked out from the molar mass of the structure shown.
Legend:
Type in all cases: functional
[1] = test system: Escherichia coli; assay: Antibacterial activity against Escherichia coli ATCC 25922 after 20 to 24 hrs by two-fold microdilution method
[2] = test system: Staphylococcus haemolyticus; assay: Antibacterial activity against Staphylococcus haemolyticus CICC 10373 after 20 to 24 hrs by two-fold microdilution method
[3] = test system: Streptococcus pneumoniae; assay: Antibacterial activity against Streptococcus pneumoniae ATCC 6305 after 20 to 24 hrs by two-fold microdilution method
[4] = test system: Staphylococcus epidermidis; assay: Antibacterial activity against Staphylococcus epidermidis ATCC 12228 after 20 to 24 hrs by two-fold microdilution method
[5] = test system: Enterococcus faecalis; assay: Antibacterial activity against Enterococcus faecalis ATCC 29212 after 20 to 24 hrs by two-fold microdilution method
[6] = test system: Staphylococcus aureus; assay: Antibacterial activity against methicillin-resistant Staphylococcus aureus 215073 clinical isolate after 20 to 24 hrs by two-fold microdilution method
[7] = test system: Staphylococcus aureus; assay: Antibacterial activity against methicillin-resistant Staphylococcus aureus 122045 clinical isolate after 20 to 24 hrs by two-fold microdilution method
[8] = test system: Staphylococcus aureus; assay: Antibacterial activity against methicillin-resistant Staphylococcus aureus 219236 clinical isolate after 20 to 24 hrs by two-fold microdilution method
[9] = test system: Staphylococcus aureus; assay: Antibacterial activity against methicillin-resistant Staphylococcus aureus 216054 clinical isolate after 20 to 24 hrs by two-fold microdilution method
[10] = test system: Staphylococcus aureus; assay: Antibacterial activity against methicillin-resistant Staphylococcus aureus 110910-2 clinical isolate after 20 to 24 hrs by two-fold microdilution method
[11] = test system: Staphylococcus aureus; assay: Antibacterial activity against methicillin-resistant Staphylococcus aureus 110414 clinical isolate after 20 to 24 hrs by two-fold microdilution method
[12] = test system: Staphylococcus aureus; assay: Antibacterial activity against methicillin-resistant Staphylococcus aureus 10281-2 clinical isolate after 20 to 24 hrs by two-fold microdilution method
[13] = test system: Staphylococcus aureus; assay: Antibacterial activity against methicillin-resistant Staphylococcus aureus GLH14 clinical isolate after 20 to 24 hrs by two-fold microdilution method
[14] = test system: Staphylococcus aureus; assay: Antibacterial activity against methicillin-resistant Staphylococcus aureus 1215028 clinical isolate after 20 to 24 hrs by two-fold microdilution method
[15] = test system: Staphylococcus aureus; assay: Antibacterial activity against methicillin-resistant Staphylococcus aureus 122710-2 clinical isolate after 20 to 24 hrs by two-fold microdilution method
[16] = test system: Staphylococcus aureus; assay: Antibacterial activity against methicillin-resistant Staphylococcus aureus 122820-2 clinical isolate after 20 to 24 hrs by two-fold microdilution method
[17] = test system: Staphylococcus aureus; assay: Antibacterial activity against methicillin-resistant Staphylococcus aureus 11819 clinical isolate after 20 to 24 hrs by two-fold microdilution method
[18] = test system: Staphylococcus aureus; assay: Antibacterial activity against methicillin-resistant Staphylococcus aureus 12308 clinical isolate after 20 to 24 hrs by two-fold microdilution method
[19] = test system: Staphylococcus aureus; assay: Antibacterial activity against methicillin-resistant Staphylococcus aureus 130031 clinical isolate after 20 to 24 hrs by two-fold microdilution method
[20] = test system: Staphylococcus aureus; assay: Antibacterial activity against methicillin-resistant Staphylococcus aureus 221022 clinical isolate after 20 to 24 hrs by two-fold microdilution method
[21] = test system: Staphylococcus aureus; assay: Antibacterial activity against methicillin-resistant Staphylococcus aureus 221014 clinical isolate after 20 to 24 hrs by two-fold microdilution method
[22] = test system: Staphylococcus aureus; assay: Antibacterial activity against methicillin-resistant Staphylococcus aureus 316031 clinical isolate after 20 to 24 hrs by two-fold microdilution method
[23] = test system: Staphylococcus aureus; assay: Antibacterial activity against methicillin-resistant Staphylococcus aureus 3250299 clinical isolate after 20 to 24 hrs by two-fold microdilution method
[24] = test system: Staphylococcus aureus; assay: Antibacterial activity against methicillin-resistant Staphylococcus aureus 519238 clinical isolate after 20 to 24 hrs by two-fold microdilution method
[25] = test system: Staphylococcus aureus; assay: Antibacterial activity against methicillin-resistant Staphylococcus aureus 519030 clinical isolate after 20 to 24 hrs by two-fold microdilution method
[26] = test system: Staphylococcus aureus; assay: Antibacterial activity against methicillin-resistant Staphylococcus aureus 523005 clinical isolate after 20 to 24 hrs by two-fold microdilution method
[27] = test system: Staphylococcus aureus; assay: Antibacterial activity against methicillin-resistant Staphylococcus aureus 531026 clinical isolate after 20 to 24 hrs by two-fold microdilution method
[28] = test system: Staphylococcus aureus; assay: Antibacterial activity against methicillin-resistant Staphylococcus aureus 614019 clinical isolate after 20 to 24 hrs by two-fold microdilution method
[29] = test system: Staphylococcus aureus; assay: Antibacterial activity against methicillin-resistant Staphylococcus aureus 921026 clinical isolate after 20 to 24 hrs by two-fold microdilution method
[30] = test system: Staphylococcus aureus; assay: Antibacterial activity against methicillin-resistant Staphylococcus aureus 112106 clinical isolate after 20 to 24 hrs by two-fold microdilution method
[31] = test system: Staphylococcus aureus; assay: Antibacterial activity against methicillin-resistant Staphylococcus aureus 822030 clinical isolate after 20 to 24 hrs by two-fold microdilution method
[32] = test system: Staphylococcus aureus; assay: Antibacterial activity against methicillin-resistant Staphylococcus aureus 831024 clinical isolate after 20 to 24 hrs by two-fold microdilution method
[33] = test system: Staphylococcus aureus; assay: Antibacterial activity against methicillin-resistant Staphylococcus aureus 1012039 clinical isolate after 20 to 24 hrs by two-fold microdilution method
[34] = test system: Staphylococcus aureus; assay: Antibacterial activity against methicillin-resistant Staphylococcus aureus 1019240 clinical isolate after 20 to 24 hrs by two-fold microdilution method
[35] = test system: Staphylococcus aureus; assay: Antibacterial activity against methicillin-resistant Staphylococcus aureus 1023043 clinical isolate after 20 to 24 hrs by two-fold microdilution method
[36] = test system: Staphylococcus aureus; assay: Antibacterial activity against methicillin-resistant Staphylococcus aureus 1101016 clinical isolate after 20 to 24 hrs by two-fold microdilution method
[37] = test system: Staphylococcus aureus; assay: Antibacterial activity against methicillin-resistant Staphylococcus aureus 1107027 clinical isolate after 20 to 24 hrs by two-fold microdilution method
[38] = test system: Staphylococcus aureus; assay: Antibacterial activity against methicillin-resistant Staphylococcus aureus 1106003 clinical isolate after 20 to 24 hrs by two-fold microdilution method
[39] = test system: Staphylococcus aureus; assay: Antibacterial activity against methicillin-resistant Staphylococcus aureus 1108204 clinical isolate after 20 to 24 hrs by two-fold microdilution method
[40] = test system: Staphylococcus aureus; assay: Antibacterial activity against methicillin-resistant Staphylococcus aureus 1113041 clinical isolate after 20 to 24 hrs by two-fold microdilution method
[41] = test system: Staphylococcus aureus; assay: Antibacterial activity against methicillin-resistant Staphylococcus aureus 1128040 clinical isolate after 20 to 24 hrs by two-fold microdilution method
[42] = test system: Staphylococcus aureus; assay: Antibacterial activity against methicillin-resistant Staphylococcus aureus 109244 clinical isolate after 20 to 24 hrs by two-fold microdilution method
[43] = test system: Staphylococcus aureus; assay: Antibacterial activity against methicillin-resistant Staphylococcus aureus 112047 clinical isolate after 20 to 24 hrs by two-fold microdilution method
[44] = test system: Staphylococcus aureus; assay: Antibacterial activity against methicillin-resistant Staphylococcus aureus 118038 clinical isolate after 20 to 24 hrs by two-fold microdilution method
[45] = test system: Staphylococcus aureus; assay: Antibacterial activity against methicillin-resistant Staphylococcus aureus 121026 clinical isolate after 20 to 24 hrs by two-fold microdilution method
[46] = test system: Staphylococcus aureus; assay: Antibacterial activity against methicillin-resistant Staphylococcus aureus 125025 clinical isolate after 20 to 24 hrs by two-fold microdilution method
[47] = test system: Staphylococcus aureus; assay: Antibacterial activity against methicillin-resistant Staphylococcus aureus 304243 clinical isolate after 20 to 24 hrs by two-fold microdilution method

CN(C)CCCCCOC(=O)c1c2c(n3cc(Br)ccc13)C(=O)c1ncccc1C2=O
MIC [1]: 1 µg/mL (≈ 2.06 µM) | MIC [2]: 0.25 µg/mL (≈ 0.516 µM) | MIC [3]: 0.5 µg/mL (≈ 1.03 µM) | MIC [4]: ≤ 0.0078 µg/mL | MIC [5]: 0.125 µg/mL (≈ 0.258 µM) | MIC [6]: 0.5 µg/mL (≈ 1.03 µM) | MIC [7]: 0.25 µg/mL (≈ 0.516 µM) | MIC [8]: 0.125 µg/mL (≈ 0.258 µM) | MIC [9]: 0.25 µg/mL (≈ 0.516 µM) | MIC [10]: 0.5 µg/mL (≈ 1.03 µM) | MIC [11]: 0.5 µg/mL (≈ 1.03 µM) | MIC [12]: 0.25 µg/mL (≈ 0.516 µM) | MIC [13]: 0.5 µg/mL (≈ 1.03 µM) | MIC [14]: 0.125 µg/mL (≈ 0.258 µM) | MIC [15]: 0.25 µg/mL (≈ 0.516 µM) | MIC [16]: 0.125 µg/mL (≈ 0.258 µM) | MIC [17]: 0.125 µg/mL (≈ 0.258 µM) | MIC [18]: 0.125 µg/mL (≈ 0.258 µM) | MIC [19]: 0.5 µg/mL (≈ 1.03 µM) | MIC [20]: 0.5 µg/mL (≈ 1.03 µM) | MIC [21]: 0.5 µg/mL (≈ 1.03 µM) | MIC [22]: 0.5 µg/mL (≈ 1.03 µM) | MIC [23]: 0.25 µg/mL (≈ 0.516 µM) | MIC [24]: 1 µg/mL (≈ 2.06 µM) | MIC [25]: 0.5 µg/mL (≈ 1.03 µM) | MIC [26]: 0.5 µg/mL (≈ 1.03 µM) | MIC [27]: 0.5 µg/mL (≈ 1.03 µM) | MIC [28]: 0.125 µg/mL (≈ 0.258 µM) | MIC [29]: 0.25 µg/mL (≈ 0.516 µM) | MIC [30]: 0.25 µg/mL (≈ 0.516 µM) | MIC [31]: 0.5 µg/mL (≈ 1.03 µM) | MIC [32]: 0.125 µg/mL (≈ 0.258 µM) | MIC [33]: 0.125 µg/mL (≈ 0.258 µM) | MIC [34]: 0.5 µg/mL (≈ 1.03 µM) | MIC [35]: 0.25 µg/mL (≈ 0.516 µM) | MIC [36]: 0.25 µg/mL (≈ 0.516 µM) | MIC [37]: 0.5 µg/mL (≈ 1.03 µM) | MIC [38]: 16 µg/mL (≈ 33 µM) | MIC [39]: 0.125 µg/mL (≈ 0.258 µM) | MIC [40]: 0.5 µg/mL (≈ 1.03 µM) | MIC [41]: 0.25 µg/mL (≈ 0.516 µM) | MIC [42]: 0.5 µg/mL (≈ 1.03 µM) | MIC [43]: 0.125 µg/mL (≈ 0.258 µM) | MIC [44]: 0.25 µg/mL (≈ 0.516 µM) | MIC [45]: 0.125 µg/mL (≈ 0.258 µM) | MIC [46]: 0.5 µg/mL (≈ 1.03 µM) | MIC [47]: 0.25 µg/mL (≈ 0.516 µM)

O=C1c2cccnc2C(=O)c2c1c(C(=O)OCCCCCCN1CCOCC1)c1ccc(Br)cn21
MIC [1]: 8 µg/mL (≈ 14.8 µM) | MIC [2]: 0.031 µg/mL (≈ 0.0574 µM) | MIC [3]: 0.5 µg/mL (≈ 0.925 µM) | MIC [4]: ≤ 0.0078 µg/mL | MIC [5]: 0.063 µg/mL (≈ 0.117 µM) | MIC [6]: ≤ 0.0078 µg/mL | MIC [7]: ≤ 0.0078 µg/mL | MIC [8]: ≤ 0.0078 µg/mL | MIC [9]: ≤ 0.0078 µg/mL | MIC [10]: ≤ 0.0078 µg/mL | MIC [11]: ≤ 0.0078 µg/mL | MIC [12]: ≤ 0.0078 µg/mL | MIC [13]: ≤ 0.0078 µg/mL | MIC [14]: ≤ 0.0078 µg/mL | MIC [15]: ≤ 0.0078 µg/mL | MIC [16]: ≤ 0.0078 µg/mL | MIC [17]: ≤ 0.0078 µg/mL | MIC [18]: ≤ 0.0078 µg/mL | MIC [19]: ≤ 0.0078 µg/mL | MIC [20]: ≤ 0.0078 µg/mL | MIC [21]: ≤ 0.0078 µg/mL | MIC [22]: ≤ 0.0078 µg/mL | MIC [23]: ≤ 0.0078 µg/mL | MIC [24]: ≤ 0.0078 µg/mL | MIC [25]: ≤ 0.0078 µg/mL | MIC [26]: ≤ 0.0078 µg/mL | MIC [27]: ≤ 0.0078 µg/mL | MIC [28]: ≤ 0.0078 µg/mL | MIC [29]: ≤ 0.0078 µg/mL | MIC [30]: ≤ 0.0078 µg/mL | MIC [31]: ≤ 0.0078 µg/mL | MIC [32]: ≤ 0.0078 µg/mL | MIC [33]: ≤ 0.0078 µg/mL | MIC [34]: ≤ 0.0078 µg/mL | MIC [35]: ≤ 0.0078 µg/mL | MIC [36]: ≤ 0.0078 µg/mL | MIC [37]: ≤ 0.0078 µg/mL | MIC [38]: > 16 µg/mL | MIC [39]: ≤ 0.0078 µg/mL | MIC [40]: ≤ 0.0078 µg/mL | MIC [41]: ≤ 0.0078 µg/mL | MIC [42]: ≤ 0.0078 µg/mL | MIC [43]: ≤ 0.0078 µg/mL | MIC [44]: ≤ 0.0078 µg/mL | MIC [45]: ≤ 0.0078 µg/mL | MIC [46]: ≤ 0.0078 µg/mL | MIC [47]: 0.031 µg/mL (≈ 0.0574 µM)
